Experiments:
Experiment in all cases: Kinase panel profiling at 1 µmol/L (mobility shift assay, Carna)
Type in all cases: biochemical
Details in all cases: 1 µmol/L of BTK inhibitor
TSSK1 = molecular target: T1, TSSK1 (Homo sapiens, UniProt Q9BXA7)
T1 construct: purchased Carna Biosciences
T1 sequence (Q9BXA7 1-367): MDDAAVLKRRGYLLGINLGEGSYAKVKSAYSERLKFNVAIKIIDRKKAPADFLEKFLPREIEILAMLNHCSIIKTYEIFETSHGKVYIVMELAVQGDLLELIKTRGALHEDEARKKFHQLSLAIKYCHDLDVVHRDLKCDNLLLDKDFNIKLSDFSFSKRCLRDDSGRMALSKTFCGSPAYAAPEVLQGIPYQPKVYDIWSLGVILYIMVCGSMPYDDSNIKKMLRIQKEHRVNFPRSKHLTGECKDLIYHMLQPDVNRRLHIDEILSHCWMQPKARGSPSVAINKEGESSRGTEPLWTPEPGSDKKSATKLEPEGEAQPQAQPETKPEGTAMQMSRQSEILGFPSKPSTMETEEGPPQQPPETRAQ

KDR = molecular target: T2, KDR (Homo sapiens, UniProt P35968)
T2 construct: purchased Carna Biosciences
T2 sequence (P35968 20-1356): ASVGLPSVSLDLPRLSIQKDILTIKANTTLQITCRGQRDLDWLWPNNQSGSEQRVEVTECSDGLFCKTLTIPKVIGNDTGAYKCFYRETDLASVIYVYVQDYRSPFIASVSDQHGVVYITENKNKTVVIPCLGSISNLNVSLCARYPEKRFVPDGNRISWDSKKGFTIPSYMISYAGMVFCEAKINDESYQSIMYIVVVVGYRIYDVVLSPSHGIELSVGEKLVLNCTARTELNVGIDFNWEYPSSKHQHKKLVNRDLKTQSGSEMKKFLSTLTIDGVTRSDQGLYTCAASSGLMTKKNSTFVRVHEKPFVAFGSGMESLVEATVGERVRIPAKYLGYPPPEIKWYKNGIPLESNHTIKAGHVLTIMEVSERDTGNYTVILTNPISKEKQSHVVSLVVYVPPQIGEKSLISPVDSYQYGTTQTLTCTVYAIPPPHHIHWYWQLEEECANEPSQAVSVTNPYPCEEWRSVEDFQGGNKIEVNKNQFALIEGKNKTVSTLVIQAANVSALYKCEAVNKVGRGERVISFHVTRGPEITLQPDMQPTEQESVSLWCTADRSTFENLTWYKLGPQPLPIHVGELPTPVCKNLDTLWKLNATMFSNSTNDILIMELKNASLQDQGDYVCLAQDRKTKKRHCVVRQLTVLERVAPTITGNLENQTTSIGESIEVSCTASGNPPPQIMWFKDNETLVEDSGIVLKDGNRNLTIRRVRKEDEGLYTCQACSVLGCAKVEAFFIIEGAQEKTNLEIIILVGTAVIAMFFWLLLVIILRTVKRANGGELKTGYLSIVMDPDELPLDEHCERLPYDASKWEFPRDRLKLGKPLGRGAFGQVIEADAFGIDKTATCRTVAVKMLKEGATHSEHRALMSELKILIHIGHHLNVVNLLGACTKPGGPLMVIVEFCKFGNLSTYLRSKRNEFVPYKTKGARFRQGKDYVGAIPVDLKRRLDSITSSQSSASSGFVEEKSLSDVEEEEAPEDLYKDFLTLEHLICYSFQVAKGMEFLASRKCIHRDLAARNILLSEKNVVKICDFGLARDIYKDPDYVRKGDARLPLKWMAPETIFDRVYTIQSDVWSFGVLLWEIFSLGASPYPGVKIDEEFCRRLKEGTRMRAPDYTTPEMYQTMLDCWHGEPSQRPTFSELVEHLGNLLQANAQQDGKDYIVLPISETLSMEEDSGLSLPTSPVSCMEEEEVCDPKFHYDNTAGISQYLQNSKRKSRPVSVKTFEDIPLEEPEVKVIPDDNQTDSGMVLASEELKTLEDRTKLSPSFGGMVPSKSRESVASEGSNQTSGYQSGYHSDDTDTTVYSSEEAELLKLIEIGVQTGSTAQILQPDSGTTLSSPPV

MAPKAPK2 = molecular target: T3, MAPKAPK2 (Homo sapiens, UniProt P49137)
T3 construct: purchased Carna Biosciences
T3 sequence (P49137 whole entry): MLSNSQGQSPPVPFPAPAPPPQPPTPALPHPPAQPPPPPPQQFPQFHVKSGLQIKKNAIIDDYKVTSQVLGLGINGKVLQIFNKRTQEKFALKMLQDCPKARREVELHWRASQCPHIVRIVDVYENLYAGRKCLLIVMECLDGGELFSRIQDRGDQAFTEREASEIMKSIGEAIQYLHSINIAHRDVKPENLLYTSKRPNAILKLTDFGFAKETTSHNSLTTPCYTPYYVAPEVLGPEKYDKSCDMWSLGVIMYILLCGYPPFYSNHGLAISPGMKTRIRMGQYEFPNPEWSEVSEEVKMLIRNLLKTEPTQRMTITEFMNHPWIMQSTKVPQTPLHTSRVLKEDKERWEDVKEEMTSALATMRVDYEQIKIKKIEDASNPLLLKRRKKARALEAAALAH

MINK = molecular target: T4, MINK (Homo sapiens, UniProt Q8N4C8)
T4 construct: purchased Carna Biosciences

SLK = molecular target: T5, SLK (Homo sapiens, UniProt Q9H2G2)
T5 construct: purchased Carna Biosciences

BRSK2 = molecular target: T6, BRSK2 (Homo sapiens, UniProt Q8IWQ3)
T6 construct: purchased Carna Biosciences
T6 sequence (Q8IWQ3 1-736): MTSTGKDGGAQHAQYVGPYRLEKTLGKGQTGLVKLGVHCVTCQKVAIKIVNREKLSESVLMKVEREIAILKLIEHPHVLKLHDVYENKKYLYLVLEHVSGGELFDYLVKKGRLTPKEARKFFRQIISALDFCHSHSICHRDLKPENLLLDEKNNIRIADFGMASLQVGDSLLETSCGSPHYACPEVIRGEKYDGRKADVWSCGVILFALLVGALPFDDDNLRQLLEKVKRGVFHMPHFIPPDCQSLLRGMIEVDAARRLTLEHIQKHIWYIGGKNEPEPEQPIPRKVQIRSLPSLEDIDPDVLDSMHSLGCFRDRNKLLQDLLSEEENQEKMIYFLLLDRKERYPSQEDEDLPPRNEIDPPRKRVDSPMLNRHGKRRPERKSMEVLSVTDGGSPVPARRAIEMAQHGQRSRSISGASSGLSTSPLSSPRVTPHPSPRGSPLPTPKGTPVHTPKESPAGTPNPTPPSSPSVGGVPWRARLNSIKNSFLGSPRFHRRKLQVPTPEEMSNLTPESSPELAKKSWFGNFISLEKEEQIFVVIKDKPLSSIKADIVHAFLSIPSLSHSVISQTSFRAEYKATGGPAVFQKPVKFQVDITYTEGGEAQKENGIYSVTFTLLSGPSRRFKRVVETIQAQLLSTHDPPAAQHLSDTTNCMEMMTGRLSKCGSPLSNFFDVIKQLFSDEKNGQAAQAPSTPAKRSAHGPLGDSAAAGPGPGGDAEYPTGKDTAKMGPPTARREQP

PBK = molecular target: T7, PBK (Homo sapiens, UniProt Q96KB5)
T7 construct: purchased Carna Biosciences
T7 sequence (Q96KB5 1-322): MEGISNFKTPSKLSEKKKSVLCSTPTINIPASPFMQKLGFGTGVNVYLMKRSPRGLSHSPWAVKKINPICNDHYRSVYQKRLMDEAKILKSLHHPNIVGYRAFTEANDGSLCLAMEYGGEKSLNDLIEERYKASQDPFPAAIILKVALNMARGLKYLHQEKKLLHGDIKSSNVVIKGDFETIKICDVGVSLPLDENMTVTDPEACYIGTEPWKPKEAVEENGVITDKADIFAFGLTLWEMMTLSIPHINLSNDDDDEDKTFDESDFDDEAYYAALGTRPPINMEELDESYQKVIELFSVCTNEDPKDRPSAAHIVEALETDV

SRPK2 = molecular target: T8, SRPK2 (Homo sapiens, UniProt P78362)
T8 construct: purchased Carna Biosciences

HGK = molecular target: T9, HGK (Homo sapiens, UniProt O95819)
T9 construct: purchased Carna Biosciences
T9 sequence (O95819 whole entry): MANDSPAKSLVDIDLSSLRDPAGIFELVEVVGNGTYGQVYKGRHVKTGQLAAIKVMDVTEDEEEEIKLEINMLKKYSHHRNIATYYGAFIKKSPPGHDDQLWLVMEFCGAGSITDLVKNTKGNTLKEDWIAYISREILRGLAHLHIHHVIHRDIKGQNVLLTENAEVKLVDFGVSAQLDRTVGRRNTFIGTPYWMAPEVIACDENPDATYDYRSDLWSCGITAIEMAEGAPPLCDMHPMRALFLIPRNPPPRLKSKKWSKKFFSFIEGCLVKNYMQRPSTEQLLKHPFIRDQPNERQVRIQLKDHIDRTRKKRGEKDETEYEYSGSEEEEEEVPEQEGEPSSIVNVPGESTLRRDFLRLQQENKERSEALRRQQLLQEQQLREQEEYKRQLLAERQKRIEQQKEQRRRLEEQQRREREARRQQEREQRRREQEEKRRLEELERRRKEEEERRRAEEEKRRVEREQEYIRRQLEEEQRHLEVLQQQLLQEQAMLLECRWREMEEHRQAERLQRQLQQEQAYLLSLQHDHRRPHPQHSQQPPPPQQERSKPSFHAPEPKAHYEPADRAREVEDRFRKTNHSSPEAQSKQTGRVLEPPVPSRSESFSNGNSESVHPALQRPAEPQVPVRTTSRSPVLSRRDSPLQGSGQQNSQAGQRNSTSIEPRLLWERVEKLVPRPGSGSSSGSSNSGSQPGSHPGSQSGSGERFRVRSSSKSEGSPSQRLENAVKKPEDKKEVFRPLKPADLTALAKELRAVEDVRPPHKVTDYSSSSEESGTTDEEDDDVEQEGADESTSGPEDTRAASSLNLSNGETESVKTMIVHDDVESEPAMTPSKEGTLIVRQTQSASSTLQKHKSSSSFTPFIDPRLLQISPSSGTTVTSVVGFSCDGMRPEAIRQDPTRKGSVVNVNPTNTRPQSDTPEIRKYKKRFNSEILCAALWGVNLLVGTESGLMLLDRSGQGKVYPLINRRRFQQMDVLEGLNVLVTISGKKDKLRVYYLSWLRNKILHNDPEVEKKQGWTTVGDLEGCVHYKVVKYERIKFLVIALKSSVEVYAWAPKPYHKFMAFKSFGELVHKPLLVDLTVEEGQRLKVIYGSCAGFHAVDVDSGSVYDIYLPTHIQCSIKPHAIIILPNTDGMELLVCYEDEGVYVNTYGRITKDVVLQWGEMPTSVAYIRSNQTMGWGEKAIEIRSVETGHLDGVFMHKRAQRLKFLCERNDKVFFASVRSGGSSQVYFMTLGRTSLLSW

SIK = molecular target: T10, SIK (Homo sapiens, UniProt P57059)
T10 construct: purchased Carna Biosciences
T10 sequence (P57059 whole entry): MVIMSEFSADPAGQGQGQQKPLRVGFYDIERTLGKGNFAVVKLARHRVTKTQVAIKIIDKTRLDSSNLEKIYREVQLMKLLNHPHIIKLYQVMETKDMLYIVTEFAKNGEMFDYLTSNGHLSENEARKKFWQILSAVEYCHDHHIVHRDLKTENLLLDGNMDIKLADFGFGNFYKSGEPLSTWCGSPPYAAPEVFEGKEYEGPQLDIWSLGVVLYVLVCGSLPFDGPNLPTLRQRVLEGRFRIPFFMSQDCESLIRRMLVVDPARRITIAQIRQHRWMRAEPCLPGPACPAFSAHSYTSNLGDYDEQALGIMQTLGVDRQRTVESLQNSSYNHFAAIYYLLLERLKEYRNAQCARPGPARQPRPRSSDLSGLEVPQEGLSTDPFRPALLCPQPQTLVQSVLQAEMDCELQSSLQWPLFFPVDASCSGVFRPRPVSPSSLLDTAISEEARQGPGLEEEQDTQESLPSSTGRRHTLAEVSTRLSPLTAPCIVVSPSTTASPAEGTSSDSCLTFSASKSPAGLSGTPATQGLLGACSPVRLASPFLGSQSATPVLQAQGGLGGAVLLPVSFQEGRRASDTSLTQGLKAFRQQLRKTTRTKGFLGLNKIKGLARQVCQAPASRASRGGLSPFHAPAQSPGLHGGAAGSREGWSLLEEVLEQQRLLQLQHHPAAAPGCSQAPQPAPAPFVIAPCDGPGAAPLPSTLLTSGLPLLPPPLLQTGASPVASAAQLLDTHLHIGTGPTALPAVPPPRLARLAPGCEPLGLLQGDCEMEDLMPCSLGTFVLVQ

ROS = molecular target: T11, ROS (Homo sapiens, UniProt P08922)
T11 construct: purchased Carna Biosciences

HIPK1 = molecular target: T12, HIPK1 (Homo sapiens, UniProt Q86Z02)
T12 construct: purchased Carna Biosciences
T12 sequence (Q86Z02 whole entry): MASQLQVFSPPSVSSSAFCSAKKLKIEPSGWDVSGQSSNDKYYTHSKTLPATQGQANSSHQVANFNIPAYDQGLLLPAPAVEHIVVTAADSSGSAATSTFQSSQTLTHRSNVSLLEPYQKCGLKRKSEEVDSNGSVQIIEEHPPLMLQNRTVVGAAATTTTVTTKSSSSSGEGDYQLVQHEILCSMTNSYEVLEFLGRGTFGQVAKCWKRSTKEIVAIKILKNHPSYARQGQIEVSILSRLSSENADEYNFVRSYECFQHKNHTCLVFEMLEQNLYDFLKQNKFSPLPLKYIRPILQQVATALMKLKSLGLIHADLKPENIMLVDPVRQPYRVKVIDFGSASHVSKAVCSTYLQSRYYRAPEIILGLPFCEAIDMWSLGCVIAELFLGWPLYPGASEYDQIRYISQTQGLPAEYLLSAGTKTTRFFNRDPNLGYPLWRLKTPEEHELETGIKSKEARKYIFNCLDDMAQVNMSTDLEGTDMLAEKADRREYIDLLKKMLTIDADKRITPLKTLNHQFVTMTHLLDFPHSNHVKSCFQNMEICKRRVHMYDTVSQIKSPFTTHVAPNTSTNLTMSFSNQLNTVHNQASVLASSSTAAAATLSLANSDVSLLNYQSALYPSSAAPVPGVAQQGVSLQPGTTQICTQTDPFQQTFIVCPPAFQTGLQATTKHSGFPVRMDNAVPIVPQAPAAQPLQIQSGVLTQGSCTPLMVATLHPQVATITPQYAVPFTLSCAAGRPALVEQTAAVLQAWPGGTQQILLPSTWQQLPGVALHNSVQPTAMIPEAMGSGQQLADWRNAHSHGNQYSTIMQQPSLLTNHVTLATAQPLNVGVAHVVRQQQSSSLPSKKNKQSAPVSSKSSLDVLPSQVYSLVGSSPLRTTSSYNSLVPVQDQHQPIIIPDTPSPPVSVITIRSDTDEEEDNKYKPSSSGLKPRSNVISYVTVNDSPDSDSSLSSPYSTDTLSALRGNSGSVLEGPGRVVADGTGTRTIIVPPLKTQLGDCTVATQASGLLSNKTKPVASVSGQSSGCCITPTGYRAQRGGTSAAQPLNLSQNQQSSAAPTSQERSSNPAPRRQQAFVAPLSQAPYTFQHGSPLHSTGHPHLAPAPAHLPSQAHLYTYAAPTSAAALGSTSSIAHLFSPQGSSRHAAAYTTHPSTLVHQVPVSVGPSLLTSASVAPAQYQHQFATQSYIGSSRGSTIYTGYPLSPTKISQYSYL

NuaK2 = molecular target: T13, NuaK2 (Homo sapiens, UniProt Q9H093)
T13 construct: purchased Carna Biosciences
T13 sequence (Q9H093 1-628): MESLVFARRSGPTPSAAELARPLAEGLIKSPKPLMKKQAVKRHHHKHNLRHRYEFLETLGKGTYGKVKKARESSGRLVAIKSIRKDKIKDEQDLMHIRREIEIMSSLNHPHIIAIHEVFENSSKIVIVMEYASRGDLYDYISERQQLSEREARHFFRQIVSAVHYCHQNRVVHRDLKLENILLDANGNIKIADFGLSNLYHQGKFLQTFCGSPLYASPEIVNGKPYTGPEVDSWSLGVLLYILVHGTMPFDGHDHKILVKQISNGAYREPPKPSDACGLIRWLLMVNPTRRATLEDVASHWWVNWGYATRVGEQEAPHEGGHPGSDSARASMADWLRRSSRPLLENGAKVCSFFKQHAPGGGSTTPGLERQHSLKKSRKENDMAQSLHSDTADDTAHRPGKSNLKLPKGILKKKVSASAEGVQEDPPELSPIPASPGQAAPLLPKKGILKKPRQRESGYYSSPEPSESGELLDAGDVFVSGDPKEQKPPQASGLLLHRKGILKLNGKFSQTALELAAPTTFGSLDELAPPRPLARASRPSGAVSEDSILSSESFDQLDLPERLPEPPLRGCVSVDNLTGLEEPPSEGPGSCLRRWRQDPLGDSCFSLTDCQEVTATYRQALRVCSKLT

Row | Structure (SMILES) | Percentage inhibition of kinase enzyme activity (TSSK1) | Percentage inhibition of kinase enzyme activity (KDR) | Percentage inhibition of kinase enzyme activity (MAPKAPK2) | Percentage inhibition of kinase enzyme activity (MINK) | Percentage inhibition of kinase enzyme activity (SLK) | Percentage inhibition of kinase enzyme activity (BRSK2) | Percentage inhibition of kinase enzyme activity (PBK) | Percentage inhibition of kinase enzyme activity (SRPK2) | Percentage inhibition of kinase enzyme activity (HGK) | Percentage inhibition of kinase enzyme activity (SIK) | Percentage inhibition of kinase enzyme activity (ROS) | Percentage inhibition of kinase enzyme activity (HIPK1) | Percentage inhibition of kinase enzyme activity (NuaK2)
1 | O=C(c1ccc(Oc2ccccc2)cc1Cl)c1c[nH]c2ncnc(N[C@@H]3CC[C@@H](CO)OC3)c12 [nemtabrutinib] | 5.68% | 80.64% | -7.90% | 46.67% | 52.74% | 15.84% | -7.49% | 1.38% | 72.78% | 96.56% | 60.67% | 2.16% | 24.70%
2 | CC#CC(=O)N1CCC[C@H]1c1nc(-c2ccc(C(=O)Nc3ccccn3)cc2)c2c(N)nccn12 [acalabrutinib] | -7.15% | 6.81% | -20.51% | -1.13% | 1.61% | -10.15% | -15.29% | 0.69% | -1.42% | 0.26% | 1.79% | -14.56% | 3.11%
3 | COc1ccc(F)cc1C(=O)NCc1ccc(-c2nn([C@@H](C)C(F)(F)F)c(N)c2C(N)=O)cc1 [pirtobrutinib] | -0.58% | -1.66% | -13.00% | -0.79% | -0.40% | 7.17% | -3.79% | -2.34% | 3.60% | -2.28% | 3.20% | 2.97% | -0.23%
4 | C=CC(=O)N1CCC([C@@H]2CCNc3c(C(N)=O)c(-c4ccc(Oc5ccccc5)cc4)nn32)CC1 [zanubrutinib] |  | -4.47% |  |  |  |  |  |  |  |  |  |  | 
5 | C=CC(=O)N1CCC[C@@H](n2nc(-c3ccc(Oc4ccccc4)cc3)c3c(N)ncnc32)C1 [ibrutinib] | 9.10% | 83.54% | -12.65% | -6.41% | 12.11% | 15.84% | -9.30% | 3.01% | -0.0249% | 8.13% | 4.82% | 4.26% | 6.37%

— paper PMC12586182 (Frontiers in Oncology, 2025)
